Experimental data reported in US20070287691A1, “METHOD FOR ACTIVATING THE LIPID CATABOLIC METABOLISM IN ENTERIC EPITHELIUM AND IMPROVING THE LIPID METABOLISM IN ENTERIC EPITHELIUM” (KAO CORPORATION, priority 2001, published 2007).

tested on: rat small-intestine epithelial cell strain, IEC-6; test: Inhibition test of triacylglycerol synthesis in the small intestine epithelium (Nile Red, FACS); format: cell-based; details: relative value, linoleic acid = 100; 200 μM, 24 hours
Protocol: Using FCS (fetal calf serum)-free, Dulbecco's modified Eagle's medium (D-MEM) with 5% FBS and 70 μg/mL kanamycin added therein, a rat small-intestine epithelial cell strain, IEC-6, was incubated under 5% CO2 at 37° C. […] Twenty-four hours later, the individual cultures were washed with PBS and subsequent to treatment with tripsin, were peeled off from Culture dishes. Those cultures were separately suspended in portions of HBSS which contained Nile Red (100 ng/mL). Subsequent to incubation at room temperature for […], FACS analysis was conducted. From average fluorescence intensities, synthesized quantities of triacylglycerols were measured.

First: CC/C=C\C/C=C\C/C=C\C/C=C\C/C=C\C/C=C\CCC(=O)O [Docosahexaenoic acid]
Second: CC/C=C\C/C=C\C/C=C\C/C=C\C/C=C\CCCC(=O)O [Eicosapentaenoic acid]
The “Fluorescence intensity (synthesized quantity of triacylglycerols)” value (“Fluorescence intensity” below) of the first is lower: 49 for the first, 52 for the second.

Going from CCCCC/C=C\C/C=C\C/C=C\CCCCC(=O)O [γ-Linolenic acid] to CCCCC/C=C\C/C=C\C/C=C\C/C=C\CCCC(=O)O [Arachidonic acid], the “Fluorescence intensity” value rises from 70 to 87.

Compared with CC/C=C\C/C=C\C/C=C\CCCCCCCC(=O)O [α-Linolenic acid], CCCCC/C=C\C/C=C\CCCCCCCC(=O)O [Linoleic acid] is higher in “Fluorescence intensity” value: 42 for the first, 100 for the second.

In the case of CCCCCCCC/C=C\CCCCCCCC(=O)O [Oleic acid], the “Fluorescence intensity” value is reported as 191.
